According to ChEMBL document CHEMBL1153643, “Design, synthesis and evaluation of aspirin analogues having an additional carboxylate substituent for antithrombotic activity” (Bioorg Med Chem Lett, 2009):
Calls of active or inactive are those of the source. The calls are words filed in the database; no cut-off is given here.

Tests used:
Format in all cases: cell-free
[1] = biological target: Prostaglandin G/H synthase 1 (Homo sapiens) (UniProt P23219); assay: Inhibition of PGHS-1 in human platelet rich plasma assessed as inhibition of U46619-induced platelet aggregation in human platelet rich plasma at 1000 um
Sequence of Prostaglandin G/H synthase 1 (Homo sapiens) (P23219 whole entry): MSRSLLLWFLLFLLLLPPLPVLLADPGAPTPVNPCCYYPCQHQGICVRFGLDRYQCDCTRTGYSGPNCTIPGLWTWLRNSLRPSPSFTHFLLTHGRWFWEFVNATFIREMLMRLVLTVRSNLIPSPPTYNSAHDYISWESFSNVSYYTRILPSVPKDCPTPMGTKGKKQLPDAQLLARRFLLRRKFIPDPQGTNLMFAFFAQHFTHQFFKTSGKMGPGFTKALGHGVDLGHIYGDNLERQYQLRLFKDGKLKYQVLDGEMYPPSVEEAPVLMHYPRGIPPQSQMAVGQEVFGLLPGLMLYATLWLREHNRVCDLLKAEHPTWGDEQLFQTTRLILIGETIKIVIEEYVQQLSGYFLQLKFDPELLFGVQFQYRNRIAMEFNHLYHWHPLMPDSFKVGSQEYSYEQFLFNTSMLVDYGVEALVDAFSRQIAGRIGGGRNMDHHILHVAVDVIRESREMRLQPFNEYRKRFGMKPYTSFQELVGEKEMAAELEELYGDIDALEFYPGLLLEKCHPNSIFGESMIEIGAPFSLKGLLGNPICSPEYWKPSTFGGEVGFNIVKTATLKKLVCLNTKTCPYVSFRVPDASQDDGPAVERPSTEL

[2] = biological target: Prostaglandin G/H synthase 1 (Homo sapiens) (UniProt P23219); assay: Ratio of compound IC50 to aspirin IC50 for PGHS-1 in human platelet rich plasma assessed as inhibition of arachidonic acid-induced platelet aggregation
[3] = biological target: Prostaglandin G/H synthase 1 (Homo sapiens) (UniProt P23219); assay: Inhibition of PGHS-1 in human platelet rich plasma assessed as inhibition of arachidonic acid-induced platelet aggregation at 1000 um treated 5 min before arachidonic acid challenge by turbidimetry

Row | Activity [1] | Ratio IC50 [2] | Activity [3] | SMILES
1 | inactive | 15 |  | COC(=O)CCCCc1cccc(C(=O)OC)c1OC(C)=O
2 |  |  | inactive | CC(=O)Oc1c(CCCC(=O)O)cccc1C(=O)O
3 |  |  | inactive | CC(=O)Oc1c(C(=O)O)cccc1C(=O)CCCC(=O)O
4 |  |  | inactive | CC(=O)Oc1c(CCCCC(=O)O)cccc1C(=O)O
